pIC50: −log10 of the molar value. Read-outs that look alike come from different tables or passages of the source.
How the values were obtained:
[1] = target: Escherichia coli DNA gyrase A/B tetramer (Escherichia coli (strain K12), UniProt P0AES4+P0AES6); test: DNA gyrase supercoiling activity fluorescence polarisation assay; format: biochemical; conditions: 0.3 mM ATP
Method: In a black, 384-well polystyrene assay plate, 30 microliters/well of 5 nM Escherichia coli DNA gyrase A/B tetramer and 130 micrograms/mL of topologically relaxed plasmid containing the triplex-forming sequence
in an assay buffer consisting of 35 mM Tris-HCl (pH 7.5), 24 mM KCl, 4 mM MgCl2, 2 mM dithiothreitol, 1.8 mM spermidine, 5% (v/v) glycerol, 200 nM bovine serum albumin, 0.8% dimethylsulfoxide, and 0.3 mM ATP were incubated at ambient temperature for (typically 30 minutes) in the absence or presence of 5-10 different concentrations of test compound. The supercoiling reactions were quenched by the addition of 10 microliters/well of 40 nM oligodeoxynucleotide probe in 3× triplex-forming buffer consisting of 150 mM NaCl, and 150 mM sodium acetate at pH 3.5. The oligodeoxynucleotide probe was 5′-BODIPY-FL-labeled
After 60 minutes, the fluorescence anisotropy of the BODIPY-FL was measured in a Tecan Ultra plate reader, using 485 nm excitation and 535 nm emission filters equipped with polarizers. The IC50 was determined by nonlinear regression using two control reactions.

[2] = tested on: Staphylococcus aureus; test: Susceptibility testing (MIC) Assay 1, broth microdilution; format: cell-based
Method: (§1) Minimum Inhibitory Concentrations (MICs) were determined by the broth microdilution method in accordance with the Clinical and Laboratory Standards Institute (CLSI) guidelines. In brief, organism suspensions were adjusted to a 0.5 McFarland standard to yield a final inoculum between 3×10^5 and 7×10^5 colony-forming units (CFU)/mL. Bacterial inocula were prepared for most organisms in sterile, cation adjusted Mueller-Hinton Broth (Beckton Dickinson). The streptococci were prepared as above in cation adjusted Mueller-Hinton Broth to which 2.5% lysed horse blood (Hema Resource & Supply Inc.) was added. An inoculum volume of 100 μL was added to wells (using a Tecan EVO robot) containing 2 μL of DMSO containing 2-fold serial dilutions of drug. All inoculated microdilution trays were incubated in ambient air at 35° C. for 18-24 hours. Following incubation, the lowest concentration of the drug that prevented visible growth as read at OD600 nm and confirmed by a visual read using a test reading mirror was recorded as the MIC. Performance of the assay was monitored by the use of laboratory quality-control strains and commercially available control compounds with defined MIC spectrums, in accordance with CLSI guidelines. Table 1 provides the MIC results (μM) of Examples 1-77 tested in Assay 1. Table 2 provides the MIC (μg/mL) results of Examples 78-80 tested in Assay 1.

[3] = tested on: Streptococcus pyogenes; test: as above; format: cell-based; conditions: in vivo strain, read-out: Spy MIC
Method: as §1

[4] = tested on: Streptococcus pneumoniae; test: as above; format: cell-based
Method: as §1

[5] = tested on: Pseudomonas aeruginosa; test: Susceptibility testing (MIC) Assay 2, broth microdilution; format: cell-based; conditions: for MIC: PAO1, read-out: Pae MIC
Method: (§2) Minimum Inhibitory Concentrations (MICs) were determined by the broth microdilution method in accordance with the Clinical and Laboratory Standards Institute (CLSI) guidelines. In brief, organism suspensions were adjusted to a 0.5 McFarland standard to yield a final inoculum between 3×10^5 and 7×10^5 colony-forming units (CFU)/mL. Bacterial inocula were generally prepared in sterile, cation adjusted Mueller-Hinton Broth (Becton Dickinson) which included Escherichia coli, Klebsiella pneumoniae, and Pseudomonas aeruginosa. Haemophilus influenzae bacterial inocula were prepared in sterile, cation adjusted Mueller-Hinton Broth (Becton Dickinson) containing 0.5% yeast extract (Becton Dickinson) plus 30 mL of 15 μg/mL Bovine Hematin stock (Sigma), and 3 mL of 15 μg/mL β-nicotinamide adenine dinucleotide (Sigma). Strains of Neisseria were tested for MICs using agar dilution methodology in accordance with CLSI guidelines. For broth microdilution testing, an inoculum volume of 100 μL was added to wells (using a Tecan EVO robot) containing 2 μL of DMSO containing 2-fold serial dilutions of drug. All inoculated microdilution panels were incubated in ambient air at 35° C. for 18-24 hours. Following incubation, the lowest concentration of the drug that prevented visible growth as read at OD600 nm and confirmed by a visual read using a test reading mirror was recorded as the MIC. Performance of the assay was monitored by the use of laboratory quality-control strains and commercially available control compounds with defined MIC spectrums, in accordance with CLSI guidelines. Table 3 provides the MIC results (μM) of Examples 1-77 tested in Assay 2. Table 4 provides the MIC (μg/mL) results of Examples 78-80 tested in Assay 2.

[6] = tested on: Klebsiella pneumoniae; test: as above; format: cell-based
Method: as §2

[7] = tested on: Escherichia coli; test: as above; format: cell-based
Method: as §2

[8] = tested on: Haemophilus influenzae; test: as above; format: cell-based
Method: as §2

[9] = Eco Gyr FP Mean IC50, E. coli DNA gyrase supercoiling
[10] = Staphylococcus aureus, Staphylococcus aureus in vivo strain, MSQS, read-out: Sau(d) MIC
[11] = Staphylococcus aureus, in vivo strain, MRQR, read-out: Sau(e) MIC
[12] = Staphylococcus aureus, serum, read-out: Sau(f) MIC
[13] = Streptococcus pyogenes, Streptococcus pyrgenes
[14] = in vivo strain (footnote b), read-out: Spn(b) MIC
[15] = in vivo strain (footnote c), read-out: Spn(c) MIC
[16] = clinical isolate, mucoid, read-out: Kpn MIC
[17] = ATCC51907, Haemophilus influenzae, ATCC 51907, in vivo strain, read-out: Hin MIC

Row | SMILES | pIC50 [1, 9] | MIC [2, 10] | MIC [2, 11] | MIC [2, 12] | MIC [3, 13] | MIC [4, 14] | MIC [4, 15] | MIC [5] | MIC [6, 16] | MIC ([7]; K12, read-out: Eco MIC) | MIC [8, 17] | also measured
1 | C[C@@H]1CN2c3c(cc4c(N5C[C@H](C)OC5=O)noc4c3F)CC3(C(=O)NC(=O)NC3=O)[C@H]2[C@H](C)O1 [Example 3, (2R,4S,4aS)-11-Fluoro-2,4-dimethyl-8-[(5S)-5-methyl-2-oxo-1,3-oxazolidin-3-yl]-1,2,4,4a-tetrahydro-2′H,6H-spiro[1,4-oxazino[4,3-a][1,2]oxazolo[4,5-g]quinoline-5,5′-pyrimidine]-2′,4′,6′(1′H,3′H)-trione] | 5.84 | 0.39 µM | 1.6 µM | 1.6 µM | 0.78 µM | 1.6 µM | 1.6 µM | > 200 µM | > 200 µM | 50 µM | 1.6 µM | 
2 | C[C@@H]1CN2c3c(cc4c(N5CC(C)(C)OC5=O)noc4c3F)CC3(C(=O)NC(=O)NC3=O)[C@H]2[C@H](C)O1 (racemic) [Example 12, (2R,4S,4aS)-8-(5,5-Dimethyl-2-oxo-1,3-oxazolidin-3-yl)-11-fluoro-2,4-dimethyl-1,2,4,4a-tetrahydro-2′H,6H-spiro[1,4-oxazino[4,3-a][1,2]oxazolo[4,5-g]quinoline-5,5′-pyrimidine]-2′,4′,6′(1′H,3′H)-trione] | 5.49 | 1.6 µM | 3.1 µM | 25 µM | 3.1 µM | 6.2 µM | 6.2 µM | > 200 µM | > 200 µM | 100 µM | 3.1 µM | 
3 | C[C@@H]1CN2c3c(cc4c(N5C(=O)OC[C@@H]5CCCF)noc4c3Cl)CC3(C(=O)NC(=O)NC3=O)[C@H]2[C@H](C)O1 [Example 34, (2R,4S,4aS)-11-Chloro-8-((S)-4-(3-fluoropropyl)-2-oxooxazolidin-3-yl)-2,4-dimethyl-2,4,4a,6-tetrahydro-1H,1′H-spiro[isoxazolo[4,5-g][1,4]oxazino[4,3-a]quinoline-5,5′-pyrimidine]-2′,4′,6′(3′H)-trione] | 6.64 | < 0.2 µM | 0.78 µM | 1.6 µM | 0.39 µM | 0.39 µM | 0.39 µM | > 200 µM | 200 µM | 25 µM | 0.39 µM | 
4 | C[C@@H]1CN2c3c(cc4c(N5C(=O)OC[C@@H]5C)noc4c3Cl)CC3(C(=O)NC(=O)NC3=O)[C@H]2[C@H](C)O1 [Example 66, (2R,4S,4aS)-11-Chloro-2,4-dimethyl-8-((S)-4-methyl-2-oxooxazolidin-3-yl)-2,4,4a,6-tetrahydro-1H, 1′H-spiro[isoxazolo[4,5-g][1,4]oxazino[4,3-a]quinoline-5,5′-pyrimidine]-2′,4′,6′(3′H)-trione] | 6.77 | 0.39 µM | 0.78 µM | 0.78 µM | 0.39 µM | 0.39 µM | 0.78 µM | > 200 µM | 100 µM | 6.2 µM | 0.78 µM | 
5 | C[C@@H]1CN2c3c(cc4c(N5C(=O)OC[C@@H]5[C@H](C)O)noc4c3F)CC3(C(=O)NC(=O)NC3=O)[C@H]2[C@H](C)O1 [Example 70] | 6.21 | 12 µM | 50 µM | 25 µM | 1.6 µM | 1.6 µM | 3.1 µM | > 200 µM | > 200 µM | 200 µM | 1.6 µM | 
6 | C[C@@H]1CN2c3c(cc4c(N5C(=O)OC[C@@H]5CCCO)noc4c3Cl)CC3(C(=O)NC(=O)NC3=O)[C@H]2[C@H](C)O1 [Example 33, (2R,4S,4aS)-11-Chloro-8-((S)-4-(3-hydroxpropyl)-2-oxooxazolidin-3-yl)-2,4-dimethyl-2,4,4a,6-tetrahydro-1H,1′H-spiro[isoxazolo[4,5-g][1,4]oxazino[4,3-a]quinoline-5,5′-pyrimidine]-2′,4′,6′(3′H)-trione] |  |  | 12 µM | 6.2 µM |  | 0.39 µM | 0.39 µM |  | >200 µM | 100 µM |  | pIC50 ([1]; E. coli DNA gyrase supercoiling, read-out: Eco Gyr FP Mean IC50): 6.59; MIC ([2]; Staphylococcus aureus in vivo strain, MSQS, read-out: Sau(d) MIC): 3.1 µM; MIC ([3]; Streptococcus pyrgenes): 0.39 µM; Pae MIC ([5]; PAO1): >200 µM; MIC ([8]; ATCC 51907, in vivo strain, read-out: Hin MIC): 0.78 µM
7 | C[C@@H]1CN2c3c(cc4c(N5C(=O)OC[C@H]5c5ncnn5C)noc4c3F)CC3(C(=O)NC(=O)NC3=O)[C@H]2[C@H](C)O1 [Example 69, (2R,4S,4aS)-11-Fluoro-2,4-dimethyl-8-((R)-4-(1-methyl-1H-1,2,4-triazol-5-yl)-2-oxooxazolidin-3-yl)-2,4,4a,6-tetrahydro-1H,1′H-spiro[isoxazolo[4,5-g][1,4]oxazino[4,3-a]quinoline-5,5′-pyrimidine]-2′,4′,6′(3′H)-trione] | 6.22 | 12 µM | 25 µM | 12 µM | 3.1 µM | 12 µM | 12 µM | > 200 µM | > 200 µM | > 200 µM | 3.1 µM | 
8 | COC[C@H]1[C@@H](C)OC(=O)N1c1noc2c(F)c3c(cc12)CC1(C(=O)NC(=O)NC1=O)[C@H]1[C@H](C)O[C@H](C)CN31 [Example 79, (2R,4S,4aS)-11-fluoro-8-((4S,5R)-4-(methoxymethyl)-5-methyl-2-oxooxazolidin-3-yl)-2,4-dimethyl-2,4,4a,6-tetrahydro-1H,1′H-spiro[isoxazolo[4,5-g][1,4]oxazino[4,3-a]quinoline-5,5′-pyrimidine]-2′,4′,6′(3′H)-trione] | < 5.68 |  | 2 µg/mL |  |  |  |  |  |  |  |  | MIC ([2]; Staphylococcus aureus, ATCC29213, Staphylococcus aureus, in vivo strain, ATCC 29213, read-out: Sau(d) MIC): 1 µg/mL; MIC ([2]; Staphylococcus aureus, MRSA, Staphylococcus aureus, in vivo strain, MRSA, read-out: Sau(f) MIC): 1 µg/mL; MIC ([3]; Streptococcus pyogenes, Streptococcus pyrogenes): 1 µg/mL; MIC ([4]; ATCC49619, Streptococcus pneumoniae, ATCC 49619, read-out: Spn(c) MIC): 1 µg/mL; MIC ([4]; in vivo strain, read-out: Spn(b) MIC): 2 µg/mL; MIC ([5]; Pseudomonoas aeruginosa): > 64 µg/mL; MIC ([6]; ATCC700603, ATCC 700603, read-out: Kpn(e) MIC): > 64 µg/mL; MIC ([6]; clinical isolate, mucoid, read-out: Kpn(d) MIC): > 64 µg/mL; MIC ([7]; ATCC25922, Escherichia coli, in vivo strain, ATCC 25922, read-out: Eco(b) MIC): 32 µg/mL; MIC ([7]; ATCC35218, Escherichia coli, ATCC 35218, read-out: Eco(c) MIC): 64 µg/mL; MIC ([8]; ATCC49247, Haemophilus influenzae, ATCC 49247, read-out: Hin MIC): 0.5 µg/mL
